Source: US20230183310A1, “Polypeptide Compounds and Use Thereof in the Prevention or Treatment of Diabetes or Diabetic Complications” (Shenzhen Turier Biotech Co., Ltd., priority 2020, published 2023)
*1 amine or outer side, *2 acyl side, *3 side chain or, on linkers, in order; H or OH if unused. Primed or numbered codes have the meaning given here. Where no end group is shown, it is not given here. Side-chain parts run from the residue outwards. [ ]: non-standard residue; d: D form. The star is where a group is joined. C20 diacid = O=C(O)CCCCCCCCCCCCCCCCCCC(=O)*; γGlu = O=C(O)[C@H](CCC(=O)[*:2])N[*:1]; PEG2′ = not defined here; Aib = CC(C)(N)C(=O)O

Columns and labels:
[1] = test system: db/db diabetic mice; assay: Treatment of 12-week-old db/db diabetic mice: blood glucose, OGTT, ITT, ALT/AST, diabetic nephropathy indices; type: in vivo; settings: for weekly blood glucose (hypoglycemic effect): FIG. 4A, blood glucose at normal levels at week 1; for weekly blood glucose (hypoglycemic effect) / improving oral glucose tolerance (OGTT) / improving insulin resistance (ITT) / ALT and AST in serum (hepatoprotective function): 120 μg/kg s.c. daily; for improving oral glucose tolerance (OGTT): FIG. 4B, week 4; for improving insulin resistance (ITT): FIG. 4C, week 5; for ALT and AST in serum (hepatoprotective function): FIG. 4D; for H&E staining of kidneys: glomerular adhesion, ameliorative and therapeutic effects: FIG. 5B; for H&E staining of kidneys: glomerular adhesion, ameliorative and therapeutic effects / PAS staining of kidneys: ameliorative effects on glomerular mesangial region / collagen content (Sirius red, FN and α-SMA staining of kidneys): after 8 weeks; for H&E staining of kidneys: glomerular adhesion, ameliorative and therapeutic effects / collagen content (Sirius red, FN and α-SMA staining of kidneys): compared to semaglutide, SAR425899 and MED C18-acid groups; for PAS staining of kidneys: ameliorative effects on glomerular mesangial region: FIG. 5C; for collagen content (Sirius red, FN and α-SMA staining of kidneys): FIGS. 5D to 5F
Method: Normal mice born in the same litter; DC group: db/db mice control group). Blood glucose and body weight were measured on alternate days after daily administration of the medicament, and water intake and food intake were measured once a week. OGTT was measured at week 4, insulin tolerance (ITT) was measured at week 5, metabolism of mice was examined using mouse metabolic cages at weeks 6-7, and various serological and pathological indices were taken at week 8.
Type 2-diabetes mice were characterized by obesity, insulin resistance, hyperglycemia, dyslipidemia and hepatic fat vacuole-like degeneration.
After 6 weeks of medical treatment, the mice was collected for urine using metabolic cages, and the protein content in the urine was detected using relevant kits. After 7 weeks of medical treatment, the material was taken and blood was used to detect serological indicators such as blood creatinine and urea nitrogen.

[2] = test system: C57BL/6J mice; assay: Oral glucose tolerance (OGTT), repeated glucose loads followed to 24 h after one s.c. dose; type: in vivo; settings: 100 μg/kg subcutaneously; for long-acting hypoglycemic effects compared to semaglutide: four OGTT curves (0-22 h)
Method: Eight-week-old male C57BL/6J mice (Model Animal Research Center, Nanjing University) were randomly grouped according to similar blood glucose (assessed by blood samples obtained from the tail tip), with six mice in each group. […] The initial blood samples (fasted blood glucose levels) were obtained after about 4 h. Subsequently, an oral dose of glucose (2 g/kg) was administered and the animals were placed back in their holding cages (t=0). […] The oral dose of glucose was then repeated at 8 h of administration, 12 h of administration and […], and blood glucose changes were detected and followed until 24 hours. The data were processed using the software GraphPadPrism to make a line graph of blood glucose changes, and the area under the curve was calculated to obtain an AUC graph, and the results are shown in FIG. 1.

[3] = test system: FN protein (fibronectin); assay: Western blot of FN protein in high glucose-induced in vitro renal fibrosis cell model; type: cell-based, rat; settings: 10 μM; 30 mmol/L glucose; 48 h; mesangial and renal epithelial cells
Description: Hyperglycemia and increased production of glycosylation end products will cause morphological changes such as proliferation and hypertrophy of glomerular mesangial cells, increase in extracellular matrix (ECM) and mesangial expansion, which will eventually lead to the loss of its physiological function. […] Therefore, this example used high glucose to induce MCS mesangial cells and NRK renal epithelial cells to construct an in vitro renal fibrosis cell model for screening medicaments useful for the treatment of diabetic nephropathy. The renal mesangial cell strain GMC and glomerular epithelial cells mTEC used in this example were both cells kept in the applicant's laboratory (both were extracted from rat renal primary cells) and cultured in low sugar medium containing 10% fetal bovine serum. The cells were starved with serum-free culture medium for 24 h when grew to 70% confluence. The cells were divided into the following 9 groups by adjusting the glucose concentration as follows: […]

[4] = test system: db/db diabetic mice; assay: Dose determination in 8-week-old db/db diabetic mice: blood glucose and body weight; type: in vivo
Method: The db/db mice diabetic model (purchased from Nanjing University-Nanjing Institute of Biomedical Research, about 8 weeks, and blood glucose and body weight were measured to ensure the smooth subsequent experiments) was obtained, and the model mice were randomly divided into 12 groups (including polypeptide compounds 3, 8, 13, 15, semaglutide and physiological saline groups), with 6 mice in each group and no difference in basal body weight and blood glucose. Each group was injected subcutaneously with compound 3 (80 and 120 μg/kg, 2 groups), compound 8 (80 and 120 μg/kg, 2 groups), compound 13 (80 and 120 μg/kg, 2 groups), compound 15 (80 and 120 μg/kg, 2 groups), semaglutide (80 and 120 μg/kg, 2 groups) and physiological saline (DN group: normal mice born in the same litter; DC group: db/db mice control group) every day or every other day.
Blood glucose and body weight of mice were measured after daily administration and 6 h fasting on alternate days.

With “His-(D-Ser)-Gln-Gly-Thr-Phe-Thr-Ser-Asp-Leu-Ser-Lys-Gln-Lys(CO(CH2)14CH3)-Glu-Ser-Lys-Ala-Ala-Gln-Asp-Phe-Ile-Glu-Trp-Leu-Lys-Ala-Gly-Gly-Pro-Ser-Ser-Gly-Ala-Pro-Pro-Pro-Ser-NH2 (HXQGTFTSDLSKQKESKAAQDFIEWLKAGGPSSGAPPPS; D-Ser; palmitoyl lysine; C-terminal amide; SAR425899; (2)..(2) X=D-Ser; (14)..(14) A side chain of Lys is linked to -CO(CH2)14CH3) [compound reported in the prior art, synthesized by the applicant, reference compound]” the “weekly blood glucose (hypoglycemic effect)” value (“weekly blood glucose” for short) [1] was “significant hypoglycemic effects”.

With “His-(D-Ser)-Gln-Gly-Thr-Phe-Thr-Ser-Asp-Lys(Gly-Gly-Ser-Gly-Ser-Gly-γGlu-CO(CH2)18-COOH)-Ser-Lys-Tyr-Leu-Glu-Aib-Lys-Ala-Ala-Gln-Asp-Phe-Val-Glu-Trp-Leu-Lys-Ala-Gly-Gly-Pro-Ser-Ser-Gly-Ala-Pro-Pro-Pro-Ser-NH2 (HXQGTFTSDKSKYLEXKAAQDFVEWLKAGGPSSGAPPPS; D-Ser, Aib; γGlu-C20 diacid lipidation; C-terminal amide; (2)..(2) X=D-Ser; (10)..(10) A side chain of Lys is linked to -Gly-Gly-Ser-Gly-Ser-Gly-AGlu-CO(CH2)18-COOH; (16)..(16) X=Aib) [Compound 14]” the “long-acting hypoglycemic effects compared to semaglutide” value [2] was “superior and significant long-acting hypoglycemic effects”, the “FN protein expression (Western blot)” value [3] was “inhibited FN expression more significantly” and the “weekly blood glucose” value [1] was “significant hypoglycemic effects”. For the same substance, the “improving oral glucose tolerance (OGTT)” value [1] was “performed more excellent”, the “improving insulin resistance (ITT)” value [1] was “performed more excellent” and the “ALT and AST in serum (hepatoprotective function)” value [1] was “more excellent hepatoprotective functions”. For the same substance, the “H&E staining of kidneys: glomerular adhesion, ameliorative and therapeutic effects” value [1] was “more significant”, the “PAS staining of kidneys: ameliorative effects on glomerular mesangial region” value [1] was “more significant” and the “collagen content (Sirius red, FN and α-SMA staining of kidneys)” value [1] was “improved more significantly”.

For “His-(D-Ser)-Gln-Gly-Thr-Phe-Thr-Ser-Asp-Lys(PEG2-PEG2-CO(CH2)18CO2H)-Ser-Lys-Tyr-Leu-Glu-Aib-Lys-Ala-Ala-Gln-Asp-Phe-Val-Glu-Trp-Leu-Lys-Ala-Gly-Gly-Pro-Ser-Ser-Gly-Ala-Pro-Pro-Pro-Ser-NH2 (H[dS]QGTFTSDK([PEG2′-PEG2′-C20 diacid])SKYLE[Aib]KAAQDFVEWLKAGGPSSGAPPPS-NH2) [Compound 2]”, the “long-acting hypoglycemic effects compared to semaglutide” value [2] was “superior and significant long-acting hypoglycemic effects”.

For “His-(D-Ser)-Gln-Gly-Thr-Phe-Thr-Ser-Asp-Tyr-Ser-Lys-Lys(PEG2-PEG2-γGlu-(CH2)17COOH)-Leu-Asp-Ser-Glu-Arg-Ala-Arg-Asp-Phe-Val-Ala-Trp-Leu-Val-Ala-Gly-Gly-NH2 (H[dS]QGTFTSDYSKKLDSERARDFVAWLVAGG-NH2; not fully specified (residue 13); printed as His-(D-Ser)-Gln-Gly-Thr-Phe-Thr-Ser-Asp-Tyr-Ser-Lys-Lys(PEG2-PEG2-γGlu-(CH2)17COOH)-Leu-Asp-Ser-Glu-Arg-Ala-Arg-Asp-Phe-Val-Ala-Trp-Leu-Val-Ala-Gly-Gly-NH2) [MED C18-acid, compound reported in the prior art, synthesized by the applicant, reference compound]”, the “weekly blood glucose” value [1] was “significant hypoglycemic effects”.

For “His-Aib-Gln-Gly-Thr-Phe-Thr-Ser-Asp-Lys(Gly-Gly-Ser-Gly-Ser-Gly-γGlu-CO(CH2)18-COOH)-Ser-Lys-Tyr-Leu-Asp-Glu-Arg-Ala-Ala-Gln-Asp-Phe-Iva-Gln-Trp-Leu-Leu-Asp-Gly-Gly-Pro-Ser-Ser-Gly-Aib-Pro-Pro-Pro-Ser-NH2 (HXQGTFTSDKSKYLDERAAQDFXQWLLDGGPSSGXPPPS; Aib, Iva; γGlu-C20 diacid lipidation; C-terminal amide; (2)..(2) X=Aib; (10)..(10) A side chain of Lys is linked to -Gly-Gly-Ser-Gly-Ser-Gly-AGlu-CO(CH2)18-COOH; (23)..(23) X=Isovaline; (35)..(35) X=Aib) [Compound 16]”, the “weekly blood glucose” value [1] was “significant hypoglycemic effects”, the “improving oral glucose tolerance (OGTT)” value [1] was “performed more excellent” and the “improving insulin resistance (ITT)” value [1] was “performed more excellent”. For the same substance, the “ALT and AST in serum (hepatoprotective function)” value [1] was “more excellent hepatoprotective functions”, the “H&E staining of kidneys: glomerular adhesion, ameliorative and therapeutic effects” value [1] was “more significant” and the “PAS staining of kidneys: ameliorative effects on glomerular mesangial region” value [1] was “more significant”. For the same substance, the “collagen content (Sirius red, FN and α-SMA staining of kidneys)” value [1] was “improved more significantly”.

For “His-Aib-Gln-Gly-Thr-Phe-Thr-Ser-Asp-Lys(PEG2-PEG2-γGlu-CO(CH2)18CO2H)-Ser-Lys-Tyr-Leu-Glu-Aib-Lys-Ala-Ala-Gln-Asp-Phe-Val-Glu-Trp-Leu-Lys-Ala-Gly-Gly-Pro-Ser-Ser-Gly-Ala-Pro-Pro-Pro-Ser-NH2 (H[Aib]QGTFTSDK([PEG2′-PEG2′-γGlu-C20 diacid])SKYLE[Aib]KAAQDFVEWLKAGGPSSGAPPPS-NH2) [Compound 1]”, the “long-acting hypoglycemic effects compared to semaglutide” value [2] was “superior and significant long-acting hypoglycemic effects”.

For Semaglutide [reference compound], the “AUC / improvement in glucose tolerance in all four OGTT curves” value ([2]; four OGTT curve periods (0-22 h), compared to control PBS) was “significantly reduced (P<0.05)”, the “blood glucose (glucose-lowering effect)” value ([4]; FIG. 3A, daily s.c., 120 μg/kg, vs saline DC group) was “better hypoglycemic effect, after which it was maintained at a more stable normoglycemic level, but its hypoglycemic effect was not significant” and the “blood glucose (hypoglycemic effect)” value ([4]; FIG. 3B, every other day s.c., 80 μg/kg) was “the hypoglycemic effect was not significant”. For the same substance, the “blood glucose (hypoglycemic effect)” value ([4]; FIG. 3B, every other day s.c., 120 μg/kg) was “the hypoglycemic effect was not significant”, the “subsequent blood glucose course (long-lasting effect)” value ([4]; FIG. 3B, every other day s.c., 120 μg/kg, from day 3 / after days 3-5) was “rebounded on day 3, and its long-lasting effect was not enough” and the “weekly blood glucose” value [1] was “significant hypoglycemic effects”.
